{"source": "ChEMBL document CHEMBL4382196", "about": "“Unraveling the Prenylation-Cancer Paradox in Multiple Myeloma with Novel Geranylgeranyl Pyrophosphate Synthase (GGPPS) Inhibitors” (J Med Chem, 2018)", "key": {"[1]": {"organism": "Homo sapiens", "assay": "Selectivity ratio of IC50 for human FPPS to IC50 for human N-terminal His6-tagged GGPPS"}, "[2]": {"biological_target": "Geranylgeranyl pyrophosphate synthase (Homo sapiens, UniProt O95749, Y246D)", "sequence (O95749 whole entry Y246D)": "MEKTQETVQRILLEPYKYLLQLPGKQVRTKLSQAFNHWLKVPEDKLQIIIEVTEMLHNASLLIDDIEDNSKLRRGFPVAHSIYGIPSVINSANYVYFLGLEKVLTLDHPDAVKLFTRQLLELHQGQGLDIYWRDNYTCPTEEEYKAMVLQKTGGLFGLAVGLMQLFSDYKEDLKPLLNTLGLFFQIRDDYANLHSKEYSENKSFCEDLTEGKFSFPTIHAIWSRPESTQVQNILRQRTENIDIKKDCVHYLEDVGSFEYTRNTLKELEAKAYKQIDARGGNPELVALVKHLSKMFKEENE"}, "[3]": {"tested_on": "RPMI-8226", "assay": "cells", "details": "Homo sapiens, RPMI-8226, 72 h"}, "[4]": {"biological_target": "T1, Farnesyl pyrophosphate synthase (Homo sapiens, UniProt P14324)", "T1 sequence (P14324 whole entry)": "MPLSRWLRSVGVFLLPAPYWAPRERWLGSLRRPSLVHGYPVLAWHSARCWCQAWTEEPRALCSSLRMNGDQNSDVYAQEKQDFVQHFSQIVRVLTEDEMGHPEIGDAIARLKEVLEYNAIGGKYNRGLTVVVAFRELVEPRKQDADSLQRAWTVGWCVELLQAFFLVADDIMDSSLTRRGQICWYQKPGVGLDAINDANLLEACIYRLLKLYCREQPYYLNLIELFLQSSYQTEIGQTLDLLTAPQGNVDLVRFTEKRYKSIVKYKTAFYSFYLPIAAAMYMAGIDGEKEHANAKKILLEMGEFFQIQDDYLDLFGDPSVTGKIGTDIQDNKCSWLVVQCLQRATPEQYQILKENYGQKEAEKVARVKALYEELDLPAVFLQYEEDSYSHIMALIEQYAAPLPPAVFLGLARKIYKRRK", "assay": "Inhibition of human FPPS using [14C]-IPP and […] after 10 mins by scintillation counting"}, "[5]": {"tested_on": "NCI/ADR-RES", "assay": "Antiproliferative activity against human NCI-ADR-RES cells after 72 hrs by celltiter-glo luminescent assay", "type": "functional, cell-based"}, "[6]": {"tested_on": "MIA PaCa-2", "assay": "Antiproliferative activity against human MIAPaCa2 cells at 10 uM after 72 hrs by celltiter-glo luminescent assay", "type": "functional, cell-based"}, "[7]": {"tested_on": "HT-1080", "assay": "Antiproliferative activity against human HT1080 cells at 10 uM after 72 hrs by celltiter-glo luminescent assay", "type": "functional, cell-based"}, "[8]": {"tested_on": "HT-29", "assay": "Antiproliferative activity against human HT-29 cells at 10 uM after 72 hrs by celltiter-glo luminescent assay", "type": "functional, cell-based"}, "[9]": {"tested_on": "HCT-116", "assay": "Antiproliferative activity against human HCT116 cells at 10 uM after 72 hrs by celltiter-glo luminescent assay", "type": "functional, cell-based"}, "[10]": {"tested_on": "T98G", "assay": "Antiproliferative activity against human T98G cells at 10 uM after 72 hrs by celltiter-glo luminescent assay", "type": "functional, cell-based"}, "[11]": {"tested_on": "A549", "assay": "Antiproliferative activity against human A549 cells at 10 uM after 72 hrs by celltiter-glo luminescent assay", "type": "functional, cell-based"}, "[12]": {"biological_target": "T2, Geranylgeranyl pyrophosphate synthase (Homo sapiens, UniProt O95749)", "T2 sequence (O95749 whole entry)": "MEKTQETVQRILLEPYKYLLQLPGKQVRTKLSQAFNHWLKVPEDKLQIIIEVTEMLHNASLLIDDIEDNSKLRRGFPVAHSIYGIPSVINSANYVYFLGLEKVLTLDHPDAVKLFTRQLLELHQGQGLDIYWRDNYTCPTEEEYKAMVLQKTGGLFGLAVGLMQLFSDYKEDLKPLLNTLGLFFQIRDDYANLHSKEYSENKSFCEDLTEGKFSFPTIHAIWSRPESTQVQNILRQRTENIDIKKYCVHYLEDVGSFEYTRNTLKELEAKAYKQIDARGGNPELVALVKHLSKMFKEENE"}, "[13]": {"tested_on": "RPMI-8226", "assay": "Induction of apoptosis in human RPMI8226 cells assessed as viable cells at 10 nM after 72 hrs by APC Annexin V/eFluor-780-viability double staining-based FACS analysis (reference value: 87.3%)", "type": "functional", "details": "RPMI-8226, 72 h, read-out: Activity"}, "[14]": {"tested_on": "RPMI-8226", "assay": "Induction of apoptosis in human RPMI8226 cells assessed as early apoptotic cells at 10 nM after 72 hrs by APC Annexin V/eFluor-780-viability double staining-based FACS analysis (reference value: 3.31%)", "type": "functional"}, "[15]": {"tested_on": "RPMI-8226", "assay": "Induction of apoptosis in human RPMI8226 cells assessed as late apoptotic cells at 10 nM after 72 hrs by APC Annexin V/eFluor-780-viability double staining-based FACS analysis (reference value: 5.80%)", "type": "functional"}, "[16]": {"tested_on": "RPMI-8226", "assay": "Induction of apoptosis in human RPMI8226 cells assessed as necrotic cells at 10 nM after 72 hrs by APC Annexin V/eFluor-780-viability double staining-based FACS analysis (reference value: 3.60%)", "type": "functional"}, "[17]": {"tested_on": "RPMI-8226", "assay": "Induction of apoptosis in human RPMI8226 cells at 10 nM after 72 hrs in presence of GGOH by APC Annexin V/eFluor-780-viability double staining-based FACS analysis", "type": "functional, cell-based"}, "[18]": {"biological_target": "T3, Farnesyl pyrophosphate synthase (Homo sapiens) (UniProt P14324)", "T3 sequence (whole entry)": "T1 sequence (P14324 whole entry)", "assay": "Inhibition of human FPPS at 1 uM using [14C]-IPP and […] after 10 mins by scintillation counting relative to control"}, "[19]": {"tested_on": "T4, Geranylgeranyl pyrophosphate synthase (Homo sapiens), O95749 [Y246D]", "T4 sequence (whole entry)": "T2 sequence (O95749 whole entry) with Y246D", "assay": "Binding affinity to human N-terminal His6-tagged GGPPS Y246D mutant expressed in Escherichia coli BL21(DE3) assessed as enzyme-inhibitor complex formation by measuring thermal stability in presence of Mg2+ ions by differential scanning fluorimetry"}, "[20]": {"biological_target": "T5, Geranylgeranyl pyrophosphate synthase (Homo sapiens) (UniProt O95749)", "T5 sequence (whole entry)": "T2 sequence (O95749 whole entry)", "assay": "Inhibition of human N-terminal His6-tagged GGPPS expressed in Escherichia coli BL21(DE3) at 10 uM using [14C]-IPP and FPP as substrates after 10 mins by scintillation counting"}, "[21]": {"biological_target": "T3, Farnesyl pyrophosphate synthase (Homo sapiens)", "assay": "Inhibition of human FPPS at 10 uM using [14C]-IPP and […] after 10 mins by scintillation counting"}, "[22]": {"tested_on": "RPMI-8226", "assay": "Antiproliferative activity against human RPMI8226 cells at 10 uM after 72 hrs by MTT assay", "type": "functional, cell-based"}, "[23]": {"tested_on": "RPMI-8226", "assay": "Induction of apoptosis in human RPMI8226 cells assessed as viable cells at 1 uM after 72 hrs by APC Annexin V/eFluor-780-viability double staining-based FACS analysis (reference value: 87.3%)", "type": "functional", "details": "RPMI-8226, 72 h, read-out: Activity"}, "[24]": {"tested_on": "RPMI-8226", "assay": "Induction of apoptosis in human RPMI8226 cells assessed as early apoptotic cells at 1 uM after 72 hrs by APC Annexin V/eFluor-780-viability double staining-based FACS analysis (reference value: 3.31%)", "type": "functional"}, "[25]": {"tested_on": "RPMI-8226", "assay": "Induction of apoptosis in human RPMI8226 cells assessed as late apoptotic cells at 1 uM after 72 hrs by APC Annexin V/eFluor-780-viability double staining-based FACS analysis (reference value: 5.80%)", "type": "functional"}, "[26]": {"tested_on": "RPMI-8226", "assay": "Induction of apoptosis in human RPMI8226 cells assessed as necrotic cells at 1 uM after 72 hrs by APC Annexin V/eFluor-780-viability double staining-based FACS analysis (reference value: 3.60%)", "type": "functional"}, "[27]": {"tested_on": "Hydroxyapatite", "assay": "Binding affinity to bone mineral hydroxyapatite at 50 uM by 1H NMR assay"}, "[28]": {"tested_on": "RPMI-8226", "assay": "Induction of apoptosis in human RPMI8226 cells assessed as viable cells at 10 uM after 72 hrs by APC Annexin V/eFluor-780-viability double staining-based FACS analysis (reference value: 87.3%)", "type": "functional", "details": "RPMI-8226, 72 h, read-out: Activity"}, "[29]": {"tested_on": "RPMI-8226", "assay": "Induction of apoptosis in human RPMI8226 cells assessed as early apoptotic cells at 10 uM after 72 hrs by APC Annexin V/eFluor-780-viability double staining-based FACS analysis (reference value: 3.31%)", "type": "functional"}, "[30]": {"tested_on": "RPMI-8226", "assay": "Induction of apoptosis in human RPMI8226 cells assessed as late apoptotic cells at 10 uM after 72 hrs by APC Annexin V/eFluor-780-viability double staining-based FACS analysis (reference value: 5.80%)", "type": "functional"}, "[31]": {"tested_on": "RPMI-8226", "assay": "Induction of apoptosis in human RPMI8226 cells assessed as necrotic cells at 10 uM after 72 hrs by APC Annexin V/eFluor-780-viability double staining-based FACS analysis (reference value: 3.60%)", "type": "functional"}}, "note": "Numbering of substitutions follows the chain as printed. Active and inactive are the calls of the source. The rule behind the calls is not given here.", "data": [{"compound": "O=C(Nc1cccc(-c2nc(NC(P(=O)(O)O)P(=O)(O)O)c3ccsc3n2)c1)c1ccccc1", "values": [{"measurement": "Ratio IC50", "setting": "[1]", "value": 30}, {"measurement": "IC50", "setting": "[2]", "value": 39, "unit": "nM"}, {"measurement": "EC50", "setting": "[3]", "value": 500, "unit": "nM"}]}, {"compound": "COc1ccc(NC(=O)c2cccc(-c3nc(NC(P(=O)(O)O)P(=O)(O)O)c4ccsc4n3)c2)cc1", "values": [{"measurement": "IC50", "setting": "[4]", "value": 1300, "unit": "nM"}, {"measurement": "Activity", "setting": "[5]", "value": "Active"}, {"measurement": "Activity", "setting": "[6]", "value": "Active"}, {"measurement": "Activity", "setting": "[7]", "value": "Active"}, {"measurement": "Activity", "setting": "[8]", "value": "Active"}, {"measurement": "Activity", "setting": "[9]", "value": "Active"}, {"measurement": "Activity", "setting": "[10]", "value": "Active"}, {"measurement": "Activity", "setting": "[11]", "value": "Active"}, {"measurement": "IC50", "setting": "[12]", "value": 75, "unit": "nM"}, {"measurement": "EC50", "setting": "[3]", "value": 230, "unit": "nM"}]}, {"compound": "CC(C)C[C@H](NC(=O)[C@H](Cc1ccccc1)NC(=O)c1cnccn1)B(O)O", "note": "[BORTEZOMIB]", "values": [{"measurement": "viability at 0.01 µM", "setting": "[13]", "value": 0.92, "unit": "%"}, {"measurement": "Activity", "setting": "[14]", "value": 0.26, "unit": "%"}, {"measurement": "Activity", "setting": "[15]", "value": 78.7, "unit": "%"}, {"measurement": "Activity", "setting": "[16]", "value": 20.1, "unit": "%"}, {"measurement": "Activity", "setting": "[17]", "value": "Active"}]}, {"compound": "O=C(Nc1cccc(-c2nc(NC(P(=O)(O)O)P(=O)(O)O)c3ccsc3n2)c1)c1ccc(F)cc1", "values": [{"measurement": "IC50", "setting": "[4]", "value": "> 1000", "unit": "nM"}, {"measurement": "inhibition", "setting": "[18]", "value": 20, "unit": "%"}, {"measurement": "Activity", "setting": "[19]", "value": "Active"}, {"measurement": "IC50", "setting": "[12]", "value": 42, "unit": "nM"}]}, {"compound": "O=C(Nc1cccc(-c2cc3c(NC(P(=O)(O)O)P(=O)(O)O)ncnc3s2)c1)c1ccccc1", "values": [{"measurement": "inhibition", "setting": "[20]", "value": "inactive"}, {"measurement": "inhibition", "setting": "[21]", "value": "inactive"}, {"measurement": "Activity", "setting": "[22]", "value": "inactive"}]}, {"compound": "O.O=P(O)(O)C(O)(Cn1ccnc1)P(=O)(O)O", "note": "[ZOLEDRONIC ACID]", "values": [{"measurement": "viability at 1 µM", "setting": "[23]", "value": 85.9, "unit": "%"}, {"measurement": "Activity", "setting": "[24]", "value": 2.55, "unit": "%"}, {"measurement": "Activity", "setting": "[25]", "value": 6.53, "unit": "%"}, {"measurement": "Activity", "setting": "[26]", "value": 5.04, "unit": "%"}, {"measurement": "Activity", "setting": "[27]", "value": "Active"}]}, {"compound": "CC(C)=CCC/C(C)=C/CC/C(C)=C/CC/C(C)=C/CO", "note": "[GERANYLGERANIOL]", "values": [{"measurement": "viability at 10 µM", "setting": "[28]", "value": 87.4, "unit": "%"}, {"measurement": "Activity", "setting": "[29]", "value": 4.71, "unit": "%"}, {"measurement": "Activity", "setting": "[30]", "value": 4.96, "unit": "%"}, {"measurement": "Activity", "setting": "[31]", "value": 2.91, "unit": "%"}]}]}
